Measured values as given in PMC5531749 (Psychopharmacology, 2016).
Where two headings read alike, the source gives them in different places.

What was measured:
[1] = tested on: visceral insular cortex (VIC) of rats; conditions: intra-VIC, cited from earlier work
[2] = tested on: AEA and 2-AG in rat whole brain tissue; conditions: ref Limebeer et al. 2014; cited from earlier work
male Sprague-Dawley rats [3] = conditions: cited from earlier work
rat MAGL = conditions: ref Limebeer et al. 2014; cited from earlier work
[4] = tested on: 2AG and AEA levels in nucleus accumbens; conditions: localized brain area; ref Wiskerke et al. (2012); cited from earlier work
male Sprague-Dawley rats [5] = conditions: cited from earlier work; remark: listed apart in the source
[6] = tested on: 2-AG and AEA in VIC tissue; conditions: systemic and intra-VIC administration; ref Sticht et al. (2015); cited from earlier work
male Sprague-Dawley rats [7] = assay type: in vivo, rat; conditions: SR141716 2.5 mg/kg 90 min after AM4301 20 mg/kg
male Sprague-Dawley rats [8] = experiment: Anticipatory nausea: contextually elicited conditioned gaping; assay type: in vivo, rat
[9] = 10–20 mg/kg systemic, CB1 receptor-dependent, ref Parker et al. 2014

CCCCCCC(C)(C)c1cc(O)c2c(c1)OC(C)(C)[C@@H]1CC=C(CO)C[C@@H]21 [HU-210]
acute nausea after administration into the VIC ([1]; ref Limebeer et al. 2012): suppressed

O=C(Oc1ccc([N+](=O)[O-])cc1)N1CCN(Cc2cccc(Oc3ccccc3)c2)CC1 [JZL195]
AEA in rat whole brain tissue [2]: elevated | anticipatory nausea, dual FAAH/MAGL inhibitor (male Sprague-Dawley rats [3]; 10 mg/kg, ref Limebeer et al. 2014): suppresses | blocking the activities of rat MAGL in whole brain analysis (rat MAGL): ineffective | elevation of 2AG level in nucleus accumbens [4]: about 50% | elevation of AEA level in nucleus accumbens [4]: ~100%

O=C(ON1C(=O)CCC1=O)N1CCN(C(c2ccc(Cl)cc2)c2ccc(Cl)cc2)CC1 [MJN110]
acute nausea after administration into the VIC ([1]; ref Sticht et al. 2012b): suppressed | anticipatory nausea, systemic MAGL inhibitor (male Sprague-Dawley rats [3]; [9]): suppresses | acute nausea, systemic MAGL inhibitor (male Sprague-Dawley rats [5]; [9]): suppresses | 2-AG in the VIC [6]: elevates

Cc1c(C(=O)NN2CCCCC2)nn(-c2ccc(Cl)cc2Cl)c1-c1ccc(Cl)cc1 [SR141716]
reversal of AM4301 suppression of acute nausea by CB1 antagonist (male Sprague-Dawley rats [7]): reversed the suppressive effect of AM4301 | reversal of AM4302 suppression of anticipatory nausea by CB1 antagonist (male Sprague-Dawley rats [8]; SR 2.5 mg/kg 90 min after AM4302 20 mg/kg): reversed | effect of CB1 antagonist on its own on contextually elicited gaping (male Sprague-Dawley rats [8]; VEH-SR 2.5 mg/kg): did not have an effect on its own

NC(=O)c1cccc(-c2cccc(OC(=O)NC3CCCCC3)c2)c1 [URB597, cyclohexyl carbamic acid 3′-carbamoyl-biphenyl-3-yl ester]
anticipatory nausea, systemic FAAH inhibitor (male Sprague-Dawley rats [3]; 0.3 mg/kg systemic, ref Rock et al. 2008): suppresses | acute nausea, systemic FAAH inhibitor (male Sprague-Dawley rats [5]; 0.3 mg/kg systemic, ref Cross-Mellor et al. 2007): suppresses
